We go through 8 compounds from ChEMBL document CHEMBL1133366, “Synthesis and structure-activity relationships of 3-cyano-4-(phenoxyanilino)quinolines as MEK (MAPKK) inhibitors” (Bioorg Med Chem Lett, 2000).

The target of experiment [1] is T1, Serine/threonine-protein kinase RAF and Dual specificity mitogen-activated protein kinase kinase 1 (Raf/MEK) (Homo sapiens, UniProt P04049+Q02750). Description: Inhibition of ERK-phosphorylation by Raf-MEK-ERK in coupled ELISA. It is filed as protein assay. Background: In an ELISA, binding on a coated surface is turned into a signal by an enzyme label.
The target of experiment [2] is Dual specificity mitogen-activated protein kinase kinase 1 (Homo sapiens, UniProt Q02750). Description: Inhibition of ERK-phosphorylation by MEK-ERK in direct ELISA.
Experiment [3] addresses T1, Serine/threonine-protein kinase RAF and Dual specificity mitogen-activated protein kinase kinase 1 (Raf/MEK). Description: Inhibition of ERK phosphorylation in coupled Raf-MEK-ERK ELISA (Weakly active). It is filed as protein assay.
The next experiment deals with LoVo. The experiment can be described thus: Inhibition of LoVo human colon tumor cell proliferation.
A further experiment concerns SW-620. Description: Inhibition of SW620 human colon tumor cell proliferation.
A further experiment deals with COLO 205. Description: cells. The conditions noted are these: Homo sapiens.

Dual specificity mitogen-activated protein kinase kinase 1, sequence (Q02750 whole entry): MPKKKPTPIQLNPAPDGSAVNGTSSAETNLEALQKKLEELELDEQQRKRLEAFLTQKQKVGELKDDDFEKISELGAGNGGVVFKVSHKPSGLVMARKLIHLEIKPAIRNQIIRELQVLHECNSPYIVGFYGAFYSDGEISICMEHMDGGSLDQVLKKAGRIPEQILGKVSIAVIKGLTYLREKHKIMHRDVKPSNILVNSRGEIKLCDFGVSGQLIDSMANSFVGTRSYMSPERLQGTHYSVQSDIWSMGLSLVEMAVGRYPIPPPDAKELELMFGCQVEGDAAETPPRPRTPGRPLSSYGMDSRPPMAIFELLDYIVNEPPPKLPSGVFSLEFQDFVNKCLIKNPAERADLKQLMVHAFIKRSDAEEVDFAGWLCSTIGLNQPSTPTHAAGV
Description for COLO 205: Inhibition of COLO 205 human colon tumor cell proliferation

What is called IC50 is the point on the concentration scale where inhibition reaches its midpoint. High values mean weaker potency in that assay, low ones greater potency in that assay. As to `COc1cccc2c(Nc3ccc(Oc4ccccc4)cc3)c(C#N)cnc12`, the half-inhibitory concentration (IC50) in experiment [1] and in experiment [2] was more than 10 µM throughout.
The compound `COc1cc2ncnc(Nc3ccc(Oc4ccccc4)cc3)c2cc1OC` registered an IC50 in experiment [3] of more than 100 µM.
Turning to `COc1cc2c(Nc3ccc(Oc4ccccc4)cc3)c(C#N)cnc2cc1OCCN1CCOCC1`, the figures for the IC50 in the experiment with LoVo, in the experiment with SW-620 and with COLO 205 were 250 nM, 700 nM and 630 nM, respectively.
In the case of `COc1ccc(OC)c2c(Nc3ccc(Oc4ccccc4)cc3)c(C#N)cnc12`, the IC50 in experiment [1] and in experiment [2] was more than 10 µM throughout.
With `COc1cc2c(Nc3ccc(Oc4ccccc4)cc3)c(C#N)cnc2cc1OCCCN1CCOCC1`, the IC50 in the experiment on LoVo is 190 nM; in experiment [1], 0.0024 µM; in experiment [2] it was 0.007 µM; in the experiment with SW-620, 380 nM; in the experiment on COLO 205, 360 nM.
As for `COc1cc2c(Nc3ccc(Oc4ccccc4)cc3)c(C#N)cnc2c(OC)c1OC`, the IC50 in experiment [1] and in experiment [2] was more than 10 µM each time.
Regarding `COc1cc2ncc(C#N)c(Nc3ccc(Oc4ccccc4)cc3)c2cc1OC`, the IC50 is 630 nM in the experiment on LoVo, 1500 nM with SW-620 and 1430 nM in the experiment with COLO 205.
Consider `COc1cc2ncc(C#N)c(Nc3ccccc3Oc3ccccc3)c2cc1OC`, for which the concentration for half-maximal inhibition (IC50) in experiment [1] and in experiment [2] was more than 10 µM each time.
